Data from ChEMBL document CHEMBL1142513, “Efficient solid-phase synthesis of FK228 analogues as potent antitumoral agents” (J Med Chem, 2008).

Tests used:
T-24 [1] = test: Growth inhibition of human T24 cells at 0.5 uM after 3 days by MTT assay; type: functional; conditions: T-24, 72 h, read-out: GI
T-24 [2] = test: Growth inhibition of human T24 cells at 5 uM after 3 days by MTT assay; type: functional; conditions: T-24, 72 h, read-out: GI
PC-3 = test: Antitumor activity against human PC-3 cells after 3 days by MTT assay; type: functional, cell-based; conditions: PC-3, 72 h
TCC-SUP = test: Antitumor activity against human TCC-SUP cells after 3 days by MTT assay; type: functional, cell-based; conditions: 72 h
DU-145 = test: Antitumor activity against human DU145 cells after 3 days by MTT assay; type: functional, cell-based; conditions: DU-145, 72 h
T-24 [3] = test: Antitumor activity against human T24 cells after 3 days by MTT assay; type: functional, cell-based; conditions: T-24, 72 h
LNCaP = test: Antitumor activity against human LNCAP cells after 3 days by MTT assay; type: functional, cell-based; conditions: 72 h
[4] = Antitumor activity against human 253J cells after 3 days by MTT assay; type: functional, cell-based; conditions: 72 h

IC50 (PC-3)	IC50 (DU-145)	IC50 (LNCaP)	SMILES	inhibition of growth at 0.5 µM (T-24 [1])	inhibition of growth at 5 µM (T-24 [2])	IC50 (TCC-SUP)	IC50 (T-24 [3])	IC50 [4]
600 nM	180 nM	270 nM	CC(C)[C@H]1NC(=O)C[C@@H]2NC(=O)[C@H](Cc3ccccc3)NC(=O)[C@H](Cc3ccccc3)NC(=O)[C@H](CSSCCNC2=O)NC1=O	70%	> 95%	380 nM	260 nM	180 nM
–	–	–	CC(C)[C@H]1NC(=O)C[C@@H]2NC(=O)[C@H](Cc3cccc4ccccc34)NC(=O)[C@H](Cc3cccc4ccccc34)NC(=O)[C@H](CSSCCNC2=O)NC1=O	70%	> 95%	–	60 nM	–
